# From PubChem BioAssay AID1996
# Conditions: buffer; pH 7.4; 200.0 µM
row,Compound,solubility kinetic [µg/mL]
1,O=C(CCc1ccccc1)Nc1nccs1,17.9
2,COC(=O)c1ccc(CN2C(=O)c3ccccc3C2=O)o1,> 42.8
3,COc1cc([N+](=O)[O-])ccc1NC(=O)Cc1ccccc1,5.5
4,Br.CC1CN2C(c3ccc(Cl)cc3)=CSC2=N1 (centres undefined),> 49.7
5,Clc1ccc(-c2ccnc(-n3cccc3)n2)s1,< 0.2
6,O=S(=O)(NCc1csc(-c2cccs2)n1)c1cccs1,49
7,C#CCn1c(CCNC(=O)c2ccco2)nc2ccccc21,> 44
8,COC(=O)c1ccc(NC(=O)c2cccc(NC(=O)c3ccccc3)c2)cc1,0.9
9,Cc1ccc(-c2ccc(S(=O)(=O)Nc3cccnc3)cc2)cc1,0.5
10,O=C(Nc1cc(Cl)ccc1N1CCOCC1)c1ccncc1,> 47.7
11,Cc1occc1C(=O)Nc1c(Cl)cccc1Cl,37.1
12,Cc1cc(NC(=O)c2ccccc2C)no1,> 32.4
13,CCOC(=O)C1=C(C)N(C)C(C)=C(C(=O)OCC)C1c1ccsc1,2
14,CN(C)S(=O)(=O)c1cccc(C(=O)NCCCn2ccnc2)c1,> 50.5
15,Cc1cc(OC(=O)c2ccc(OC(C)C)cc2)c([N+](=O)[O-])c(=O)[nH]1,> 49.8
16,O=c1onc(-c2ccccc2)c2ccccc12,27.7

row,Compound,solubility kinetic [µg/mL]
1,O=C1N=C(N2CCc3ccccc3C2)S/C1=C\c1ccc(O)cc1,3.4
2,CCCCC(=O)NC1(C(F)(F)F)NC(=O)N(C)C1=O (centres undefined),> 42.2
3,CCn1c(C)cc(=O)cc1-c1ccc(Cl)cc1,> 37.2
4,Cc1cccnc1NC(=O)Nc1cccc(Cl)c1,0.5
5,COc1ccc(OC)c2c(=O)cc(C(=O)O)[nH]c12,14.6
6,COCCNC(=O)/C(C#N)=C/c1ccccc1Br,> 46.4
7,CC12CCC(C(=O)Nc3cc(F)ccc3F)(CC1=O)C2(C)C (centres undefined),32
8,COc1cc(Cl)cc(/C=C/c2ccc3cccc(O)c3n2)c1OC,< 0.7
9,COc1ccc(CCc2nc(-c3cccs3)no2)cc1,2.3
10,CCC(C)NC(=O)c1ccc(-n2c(=S)[nH]c3ccccc3c2=O)cc1 (centres undefined),3.7
11,CCOC(=O)c1cc(-c2cccc([N+](=O)[O-])c2)on1,2.1
12,CN1C(=O)N(C)c2cccc3cccc1c23,0.8
13,CC(C)CCSc1nnc(N)s1,> 30.5
14,COc1cccc(NC(=O)c2cc(-c3ccco3)nc3ccccc23)c1,< 0.4
15,COCCn1c(C)cc(C(=O)COC(=O)c2ccc(S(=O)(=O)N(C)C)cc2)c1C,2.4

# Second part, the compound after the results:
row,solubility kinetic [µg/mL],Compound
1,68.1,COc1ccccc1N1CCN(C(=O)c2cc(S(=O)(=O)N3CCCCC3)ccc2C)CC1.Cl
2,> 47.9,CC1=C(C)CC(C(=O)NCCc2ccc(F)cc2)C(C(=O)O)C1 (centres undefined)
3,35.3,CCOC(=O)C1=C(C)Nc2ccccc2N=C1NC(=O)C1CCN(C(=O)c2ccccc2C)CC1
4,13.9,O=C(O)C1C2CCC(C2)C1C(=O)Nc1cccc([N+](=O)[O-])c1 (centres undefined)
5,13.1,O=C(c1csc(Nc2cccc3ccccc23)n1)N1CCCC1
6,47.3,CC(C)CC(C(=O)N1CCOCC1)N1Cc2ccccc2C1=O (centres undefined)
7,0.6,CN(C)S(=O)(=O)N1CCN(c2ccc([N+](=O)[O-])c(NC3CC3)c2)CC1
8,> 42.6,O=C(NCc1ccccc1Br)C1CCCO1 (centres undefined)
9,8.4,O=C(CC(=O)Nc1ccccc1)Nc1ccccc1
10,> 50.6,Cn1c(CCC(=O)O)nc2cc(S(=O)(=O)N3CCCC3)ccc21
11,36.5,CC(C)(CO)Nc1nc(Cl)nc(NC2CCCCC2)n1
12,> 46.5,CC(C)c1onc(C(=O)N2CCC(C(N)=O)CC2)c1[N+](=O)[O-]
13,> 50.7,Cl.O=C(OCCN1CCCCC1)C1(c2ccccc2)CCCC1
14,1.2,CCCc1ccc(C(C)NC(=S)NC2CCCCC2)cc1 (centres undefined)
15,2.7,CN1C(=O)/C(=C/c2cn(CC(=O)N3CCCCC3)c3ccccc23)NC1=S
16,> 48.3,CC1=C(C)CC(C(=O)NCc2cccc(Cl)c2)C(C(=O)O)C1 (centres undefined)
17,31,CCCN(C(=O)CCl)C1=CCCCC1
18,> 40,O=C(CNC(=O)C1CCCCC1)NC1CCCCC1
19,> 51.8,COC(CNC(=O)c1ccc2c(c1)ncn2C1CCCCCC1)OC
20,41,O=C(NCCCN1CCOCC1)c1cc(Cl)ccc1Cl
21,> 48.6,COc1ccc(C(=O)OCC(=O)NC(=O)NC(C)C)cc1OC
22,40.9,C/C(Cl)=C\Cn1c(N2CCCC2)nc2c1c(=O)n(C)c(=O)n2C
23,> 61.9,COc1ccc(C(=O)Nc2ccc(C(=O)N3CCCCC3C)cc2)c(OC)c1OC (centres undefined)
24,8.8,COc1ccc(S(=O)(=O)N2CCOCC2)cc1NC(=O)COC(=O)c1[nH]c(C)c(C(C)=O)c1C
25,18.8,O=C(COc1ccc(F)cc1)N1CCC(Cc2ccccc2)CC1
26,> 44.4,O=C(NCCCN1CCCC1=O)Nc1ccccc1Cl
27,> 53.1,O=C(NCCCNC(=O)c1c(F)cccc1F)c1c(F)cccc1F
28,0.3,Cc1cc(C)cc(NC(=O)Nc2ccc(N3CCCCC3)cc2)c1
